In US20230295118A1 (EnhancedBio Inc., priority 2022, published 2023):

Columns and labels:
[1] = target: T1, CDK6 (Homo sapiens, UniProt Q00534); assay: CDK6 degradation (DC50, Dmax); assay type: cell-based
T1 construct: endogenous in cells

[2] = tested on: mantle cell lymphoma cell (Mino or JeKo-1); assay: Antiproliferative effect, MTS cell viability assay; assay type: cell-based; conditions: 72 h; for IC50: mantle cell lymphoma cell (Mino or JeKo-1), MTS assay, read-out: IC50 (anti-proliferation); for inhibition of cell proliferation of Mino cells: 0-1 μM, result in words
How it was run: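 MTS read-out (formazan absorbance at 490 nm) after 72 h exposure of Mino cells to 0–1 μM compound (0.0001, 0.001, 0.01, 0.1, 1 μM). Palbociclib and abemaciclib served as positive controls.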

[3] = target: T2, CDK4 (Homo sapiens, UniProt P11802); assay: CDK4 degradation (DC50, Dmax); assay type: cell-based
T2 construct: endogenous in cells

[4] = tested on: CDK4/6; assay: CDK4/6 degradation in A375 melanoma cells (FIG. 1); assay type: cell-based; conditions: result in words
[5] = tested on: Mino xenograft tumor; assay: In vivo tumor inhibition efficacy, Mino xenograft; conditions: NOD/SCID mice, 20 mg/kg via oral gavage for 3 weeks; result in words
Procedure: Mino cells were obtained from American Type Culture Collection (ATCC, Manassas, VA). Cells were maintained in RPM 1640 (Life Technologies, Grand Island, NY) supplemented with 10% heat-inactivated fetal bovine serum (56° C. for 30 minutes), penicillin (10 000 units/mL; Sigma, St Louis, Mo), streptomycin (10 mg/mL; Sigma), gentamicin (50 mg/mL; Life Technologies), amphotericin B (25 mg/mL; Sigma), and L-glutamine (200 mM, 29.2 mg/mL; Life Technologies), culture, as previously described (29, 30). Mino cells (10 million) were subcutaneously implanted into the flank of NOD/SCID mice. When the average tumor volume reached approximately 300 cubic millimeters (mm^3), the following treatments were administered in cohorts of 5 mice for each treatment: vehicle alone, 20 mg/kg abemaciclib, 20 mg/kg Compound 90, or 20 mg/kg Compound 94 via oral gavage for 3 weeks. Tumor growth was monitored twice weekly by calipers and tumor volume was calculated using the equation: (½ (length×width^2)).

T2 sequence (P11802 whole entry): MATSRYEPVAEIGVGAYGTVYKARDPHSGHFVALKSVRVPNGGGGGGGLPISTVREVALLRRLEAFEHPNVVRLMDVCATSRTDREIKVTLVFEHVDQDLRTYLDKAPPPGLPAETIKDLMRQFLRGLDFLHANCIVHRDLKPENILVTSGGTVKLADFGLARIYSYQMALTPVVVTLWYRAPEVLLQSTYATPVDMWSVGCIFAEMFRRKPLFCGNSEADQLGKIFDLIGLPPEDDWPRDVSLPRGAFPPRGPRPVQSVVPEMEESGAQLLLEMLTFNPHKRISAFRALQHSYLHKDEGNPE
T1 sequence (Q00534 whole entry): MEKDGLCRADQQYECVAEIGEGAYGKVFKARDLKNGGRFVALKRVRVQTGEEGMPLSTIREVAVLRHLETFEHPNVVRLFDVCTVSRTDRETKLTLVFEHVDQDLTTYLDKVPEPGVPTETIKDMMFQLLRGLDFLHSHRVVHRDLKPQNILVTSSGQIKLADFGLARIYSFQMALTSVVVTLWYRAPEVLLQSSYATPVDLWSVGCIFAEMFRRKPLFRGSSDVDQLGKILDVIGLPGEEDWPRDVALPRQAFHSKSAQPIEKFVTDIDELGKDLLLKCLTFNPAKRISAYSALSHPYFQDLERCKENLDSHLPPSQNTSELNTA

Compound	DC50 [1]	Dmax [1]	IC50 [2]	inhibition of cell proliferation of Mino cells [2]	DC50 [3]	Dmax [3]	CDK4/6 degradation [4]	Mino xenograft tumor growth [5]
Cc1nc2c(F)cc(-c3nc(Nc4ccc(CN5CCN(CCCNc6ccc7c(c6)C(=O)N(C6CCC(=O)NC6=O)C7=O)CC5)cn4)ncc3F)cc2n1C(C)C (stereo not shown) [Compound 73, 2-(2,6-dioxopiperidin-3-yl)-5-((3-(4-((6-((5-fluoro-4-(4-fluoro-1-isopropyl-2-methyl-1H-benzo[d]imidazol-6-yl)pyrimidin-2-yl)amino)pyridin-3-yl)methyl)piperazin-1-yl)propyl)amino) isoindoline-1,3-dione]	< 50 nM	> 80%	< 50 nM	dose-dependent inhibition of cell proliferation	< 50 nM	> 80%	dose-dependent CDK4/6 degradation	–
Cc1nc2c(F)cc(-c3nc(Nc4ccc(CN5CCN(CCNc6ccc7c(c6)C(=O)N(C6CCC(=O)NC6=O)C7=O)CC5)cn4)ncc3F)cc2n1C(C)C (stereo not shown) [Compound 90, 2-(2,6-dioxopiperidin-3-yl)-5-((2-(4-((6-((5-fluoro-4-(4-fluoro-1-isopropyl-2-methyl-1H-benzo[d]imidazol-6-yl)pyrimidin-2-yl)amino)pyridin-3-yl)methyl)piperazin-1-yl)ethyl)amino) isoindoline-1,3-dione]	< 50 nM	> 80%	< 50 nM	dose-dependent inhibition of cell proliferation	< 50 nM	> 80%	–	inhibiting Mino xenograft tumor growth
Cc1nc2c(F)cc(-c3nc(Nc4ccc(CN5CCN(CC6CN(c7ccc8c(c7)C(=O)N(C7CCC(=O)NC7=O)C8=O)C6)CC5)cn4)ncc3F)cc2n1C(C)C (stereo not shown) [Compound 94, 2-(2,6-dioxopiperidin-3-yl)-5-(3-((4-((6-((5-fluoro-4-(4-fluoro-1-isopropyl-2-methyl-1H-benzo[d]imidazol-6-yl)pyrimidin-2-yl)amino)pyridin-3-yl)methyl)piperazin-1-yl)methyl)azetidin-1-yl)isoindoline-1,3-dione]	< 50 nM	> 80%	< 50 nM	dose-dependent inhibition of cell proliferation	< 50 nM	> 80%	–	inhibiting Mino xenograft tumor growth
CC(=O)c1c(C)c2cnc(Nc3ccc(N4CCN(C(=O)CNc5ccc6c(c5)C(=O)N(C5CCC(=O)NC5=O)C6=O)CC4)cn3)nc2n(C2CCCC2)c1=O (stereo not shown) [Compound 104, 5-((2-(4-(6-((6-acetyl-8-cyclopentyl-5-methyl-7-oxo-7,8-dihydropyrido[2,3-d]pyrimidin-2-yl)amino)pyridin-3-yl)piperazin-1-yl)-2-oxoethyl)amino)-2-(2,6-dioxopiperidin-3-yl)isoindoline-1,3-dione]	50 to 200 nM	> 60%	< 50 nM	dose-dependent inhibition of cell proliferation	50 to 200 nM	> 60%	dose-dependent CDK4/6 degradation	–
